Data from paper PMC11859928, “Design, Synthesis, and Antiproliferative Activity of Novel Indole/1,2,4-Triazole Hybrids as Tubulin Polymerization Inhibitors” (Pharmaceuticals, 2025).
Read-outs that look alike come from different tables or passages of the source.

What was measured:
EKVX = assay: NCI five-dose assay; assay type: cell-based, human; settings: Non-small cell lung cancer
CCRF-CEM = assay: NCI five-dose assay; assay type: cell-based, human; settings: Homo sapiens, Leukemia
HOP-62 = assay: NCI five-dose assay; assay type: cell-based, human; settings: HOP-62, Non-small cell lung cancer
tubulin = target: T1, tubulin (Sus scrofa, UniProt P02550+P02554); assay: Tubulin polymerization inhibitory assay; assay type: biochemical
T1 construct: purchased Cytoskeleton Inc., Denver, CO, USA
T1 sequence (P02554 whole entry): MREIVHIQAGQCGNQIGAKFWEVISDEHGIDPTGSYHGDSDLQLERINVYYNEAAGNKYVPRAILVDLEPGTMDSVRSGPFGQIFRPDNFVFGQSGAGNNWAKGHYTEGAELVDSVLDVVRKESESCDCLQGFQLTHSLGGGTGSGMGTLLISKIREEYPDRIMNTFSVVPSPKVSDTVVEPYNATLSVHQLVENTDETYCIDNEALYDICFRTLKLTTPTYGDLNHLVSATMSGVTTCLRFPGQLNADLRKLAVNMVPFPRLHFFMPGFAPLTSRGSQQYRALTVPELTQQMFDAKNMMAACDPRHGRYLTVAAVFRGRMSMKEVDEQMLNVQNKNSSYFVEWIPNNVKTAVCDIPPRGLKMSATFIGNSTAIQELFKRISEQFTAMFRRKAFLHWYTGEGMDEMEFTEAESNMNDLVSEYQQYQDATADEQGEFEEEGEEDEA
T1 sequence (P02550 whole entry): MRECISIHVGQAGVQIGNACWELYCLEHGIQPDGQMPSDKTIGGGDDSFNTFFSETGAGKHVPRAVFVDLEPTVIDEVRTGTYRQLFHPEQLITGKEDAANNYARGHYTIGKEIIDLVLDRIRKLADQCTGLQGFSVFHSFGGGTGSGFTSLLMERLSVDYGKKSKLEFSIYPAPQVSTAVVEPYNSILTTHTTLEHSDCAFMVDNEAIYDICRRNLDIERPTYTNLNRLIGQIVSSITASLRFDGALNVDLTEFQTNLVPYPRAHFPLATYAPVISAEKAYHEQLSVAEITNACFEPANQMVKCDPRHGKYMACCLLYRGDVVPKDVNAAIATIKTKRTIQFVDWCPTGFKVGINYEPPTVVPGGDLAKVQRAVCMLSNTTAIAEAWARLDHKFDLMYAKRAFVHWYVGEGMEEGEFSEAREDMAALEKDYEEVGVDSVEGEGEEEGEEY
How it was run: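 Compound effects on tubulin polymerization were measured with the Tubulin Polymerization Assay Kit (Cytoskeleton Inc., Denver, CO, USA), run as the supplier instructs, which detects polymerization through enhancement of a fluorescent reporter. Docetaxel served as the stabilizing control and vincristine as the destabilizing control, each at 3 µM in PBS.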

OVCAR-4 = assay: NCI five-dose assay; assay type: cell-based, human; settings: OVCAR-4, Ovarian cancer
SK-MEL-2 = assay: NCI five-dose assay; assay type: cell-based, human; settings: SK-MEL-2, Melanoma
MDA-MB-435 = assay: NCI five-dose assay; assay type: cell-based, human; settings: MDA-MB-435, Melanoma
NCI-H522 = assay: NCI five-dose assay; assay type: cell-based, human; settings: NCI-H522, Non-small cell lung cancer
DU-145 = assay: NCI five-dose assay; assay type: cell-based, human; settings: DU-145, Prostate cancer
SNB-75 = assay: NCI five-dose assay; assay type: cell-based, human; settings: SNB-75, CNS cancer
BT-549 = assay: NCI five-dose assay; assay type: cell-based, human; settings: BT-549, Breast cancer
HL-60(TB) = assay: NCI five-dose assay; assay type: cell-based, human; settings: Leukemia
HCT-116 = assay: NCI five-dose assay; assay type: cell-based, human; settings: HCT-116, Colon cancer
NCI-H322M = assay: NCI five-dose assay; assay type: cell-based, human; settings: Non-small cell lung cancer
NCI-H226 = assay: NCI five-dose assay; assay type: cell-based, human; settings: NCI-H226, Non-small cell lung cancer
A498 = assay: NCI five-dose assay; assay type: cell-based, human; settings: A498, Renal cancer
786-0 = assay: NCI five-dose assay; assay type: cell-based, human; settings: 786-0, Renal cancer
SK-OV-3 = assay: NCI five-dose assay; assay type: cell-based, human; settings: SK-OV-3, Ovarian cancer
UO-31 = assay: NCI five-dose assay; assay type: cell-based, human; settings: UO-31, Renal cancer
NCI-H23 = assay: NCI five-dose assay; assay type: cell-based, human; settings: NCI-H23, Non-small cell lung cancer
NCI-H460 = assay: NCI five-dose assay; assay type: cell-based, human; settings: NCI-H460, Non-small cell lung cancer
SF-295 = assay: NCI five-dose assay; assay type: cell-based, human; settings: SF-295, CNS cancer
Prostate cancer subpanel = assay: NCI five-dose assay, subpanel mean; assay type: cell-based, human
Breast cancer subpanel = assay: NCI five-dose assay, subpanel mean; assay type: cell-based, human
LOX IMVI = assay: NCI five-dose assay; assay type: cell-based, human; settings: Melanoma
[1] = Homo sapiens, 48 h, read-out: LC50 (the source's name)
[2] = Homo sapiens, read-out: GI50 Conc. per Cell Lines

In the case of `O/N=C(\CSc1nnc(-c2c[nH]c3ccccc23)n1-c1ccccc1)c1ccc(Br)cc1` [Compound 7i, (Z)-2-((5-(1H-Indol-3-yl)-4-phenyl-4H-1,2,4-triazol-3-yl)thio)-1-(4-bromophenyl) Ethanone Oxime], the CC50 (EKVX; [1]) is reported as 34.2 µM, the GI50 (EKVX; [2]) is reported as 2.6 µM and the “TGI Conc. per Cell Lines” value (EKVX) is reported as 9.09 µM. The CC50 (CCRF-CEM; 48 h, read-out: LC50 (the source's name)) was over 100 µM, the GI50 (CCRF-CEM; read-out: GI50 Conc. per Cell Lines) was 2.78 µM and the “TGI Conc. per Cell Lines” value (HOP-62) was 3.98 µM. The GI50 (HOP-62; [2]) was 1.86 µM, the “%inhibition” value (tubulin; conc 0.01 (unit not given; IC50 from this curve in µg/ml)) was 6.76% and the “%inhibition” value (tubulin; conc 0.1 (unit not given; IC50 from this curve in µg/ml)) was 21%. The “%inhibition” value (tubulin; conc 1 (unit not given; IC50 from this curve in µg/ml)) was 47.4%, the “%inhibition” value (tubulin; conc 10 (unit not given; IC50 from this curve in µg/ml)) was 68.5% and the “%inhibition” value (tubulin; conc 100 (unit not given; IC50 from this curve in µg/ml)) was 87%. For the same compound, the IC50 (tubulin; read-out: Tub. IC50±SD (converted)) was 3.03 µM, the IC50 (tubulin; read-out: Tubulin Inhibitory Effect, IC50) was 3.03 ± 0.11 µM and the GI50 (OVCAR-4; [2]) was 2.14 µM. The “TGI Conc. per Cell Lines” value (OVCAR-4) was 4.57 µM, the CC50 (SK-MEL-2; [1]) was 37.5 µM and the GI50 (SK-MEL-2; [2]) was 3.1 µM. The “TGI Conc. per Cell Lines” value (SK-MEL-2) was 10.4 µM, the CC50 (MDA-MB-435; [1]) was 7.57 µM and the GI50 (MDA-MB-435; [2]) was 2.01 µM. The “TGI Conc. per Cell Lines” value (MDA-MB-435) was 3.89 µM, the CC50 (NCI-H522; [1]) was 61.6 µM and the GI50 (NCI-H522; [2]) was 2.52 µM. The “TGI Conc. per Cell Lines” value (NCI-H522) was 7.70 µM, the “TGI Conc. per Cell Lines” value (DU-145) was 4.08 µM and the GI50 (DU-145; [2]) was 2.05 µM. The CC50 (SNB-75; [1]) was 28.1 µM, the GI50 (SNB-75; [2]) was 1.87 µM and the “TGI Conc. per Cell Lines” value (SNB-75) was 4.95 µM. For the same compound, the “TGI Conc. per Cell Lines” value (BT-549) was 7.25 µM, the CC50 (BT-549; [1]) was 34.2 µM and the GI50 (BT-549; [2]) was 3.16 µM. The CC50 (HL-60(TB); [1]) was over 100 µM, the GI50 (HL-60(TB); [2]) was 1.92 µM and the “TGI Conc. per Cell Lines” value (HL-60(TB)) was 4.55 µM. The “TGI Conc. per Cell Lines” value (HCT-116) was 17.40 µM, the CC50 (HCT-116; [1]) was over 100 µM and the GI50 (HCT-116; [2]) was 3.45 µM. The CC50 (NCI-H322M; [1]) was 93.3 µM, the GI50 (NCI-H322M; [2]) was 4.8 µM and the “TGI Conc. per Cell Lines” value (NCI-H322M) was 24.20 µM. For the same compound, the CC50 (NCI-H226; [1]) was 51.4 µM, the GI50 (NCI-H226; [2]) was 3.33 µM and the “TGI Conc. per Cell Lines” value (NCI-H226) was 14.90 µM. For the same compound, the “TGI Conc. per Cell Lines” value (A498) was 51.70 µM, the LC50 (A498; Homo sapiens, 48 h) was over 100 µM and the GI50 (A498; [2]) was 1.63 µM. The “TGI Conc. per Cell Lines” value (786-0) was 27.00 µM, the LC50 (50% lethal concentration) (786-0; Homo sapiens, 48 h) was 93.4 µM and the GI50 (786-0; [2]) was 6.85 µM. The CC50 (SK-OV-3; [1]) was 27.4 µM, the GI50 (SK-OV-3; [2]) was 2.53 µM and the “TGI Conc. per Cell Lines” value (SK-OV-3) was 6.03 µM. The CC50 (UO-31; [1]) was 34.3 µM, the GI50 (UO-31; [2]) was 2.29 µM and the “TGI Conc. per Cell Lines” value (UO-31) was 7.81 µM. The CC50 (NCI-H23; [1]) was 84.3 µM, the GI50 (NCI-H23; [2]) was 4.31 µM and the “TGI Conc. per Cell Lines” value (NCI-H23) was 19.60 µM. For the same compound, the CC50 (NCI-H460; [1]) was 68.4 µM, the GI50 (NCI-H460; [2]) was 3.53 µM and the “TGI Conc. per Cell Lines” value (NCI-H460) was 12.90 µM. For the same compound, the CC50 (SF-295; [1]) was 13.6 µM, the GI50 (SF-295; [2]) was 1.93 µM and the “TGI Conc. per Cell Lines” value (SF-295) was 4.70 µM. The GI50 (Prostate cancer subpanel; Homo sapiens, average sensitivity of all cell lines of the Prostate cancer subpanel, read-out: GI50 Subpanel MID b) was 2.1 µM, the “GI50 Selectivity Ratio (MID a/MID b)” value (Prostate cancer subpanel; Prostate cancer subpanel) was 1.33 and the “GI50 Selectivity Ratio (MID a/MID b)” value (Breast cancer subpanel; Breast cancer subpanel) was 1.02. For the same compound, the GI50 (Breast cancer subpanel; Homo sapiens, average sensitivity of all cell lines of the Breast cancer subpanel, read-out: GI50 Subpanel MID b) was 2.73 µM, the CC50 (LOX IMVI; [1]) was 5.69 µM and the GI50 (LOX IMVI; [2]) was 1.71 µM. The “TGI Conc. per Cell Lines” value (LOX IMVI) was 3.12 µM.
